This note sets out measurements from patent publication US9931315B2, “Method of selectively inhibiting Ras-mediated tumor growth in humans” (ADT PHARMACEUTICALS, INC., priority 2014, dated 2018).

Like-named read-outs stand apart in the source and are kept apart here.

Holding throughout (format): cell-based, human
One data set has as its system HT-29 colon cancer cells. In words: Cell growth inhibition (CellTiter-Glo ATP assay), HT-29 cells with wild-type Ras. Particulars: Homo sapiens, HT-29. As to the method: (§1) This example illustrates cell growth assays employed in the present invention.
(§2) Normal rat kidney (NRK) and Ki-Ras transformed NRK cells (K-NRK) were obtained from ATCC, and were cultured according to supplier recommendations. CellTiter-Glo ATP cell growth assay reagents were obtained from Promega and used according to the manufacturer's protocol. Inhibitors of EGFR, Raf, and MEK were obtained from Selleck Chemicals. Cells were plated at a density of 5,000 cells per well in 96-well microplates or 1,250 cells per well in 384-well plates, and allowed to attach for at least 4 h. Test compounds were dissolved in dimethyl sulfoxide (DMSO), and this working stock was further diluted in growth medium for addition to cell cultures. Serial dilutions of the test compound were prepared in growth medium containing an equal amount of DMSO not exceeding 0.2% final concentration. Each compound concentration was tested in at least 3 separate samples per cell line. At the end of a 3-day treatment period, growth inhibition was analyzed using a bioluminescent assay of ATP concentration (Promega CellTiter-Glo) according to the manufacturer's protocol. Resulting luminescence was measured using the luminescence cartridge of the Molecular Devices Spectramax Paradigm microplate reader. Relative growth inhibition for each sample was determined by comparison with the values obtained for vehicle treated control samples. Growth inhibition values were plotted with the GraphPad Prism5 software using the 4-parameter logistic fit to obtain IC50 values, which corresponds to the growth inhibitory potency of the compound.
(§3) This example illustrates effects of exemplary compounds of the present invention on cancer cells having activated or mutated Ras compared to wild-type (WT) Ras. […] A549 lung cancer cells, which harbor a mutation in the K-Ras oncogene were treated for three days with the compounds.
(§4) Cells were seeded in 384-well plates and allowed to attach. Ten-fold serial dilutions of compounds were tested. Each compound concentration was tested in at least 3 separate samples per cell line.
A general note: ATP-based viability assays read luminescence as a measure of living cells.

The test system of the next data set is Caco-2 cells. In words: Cell growth inhibition (CellTiter-Glo), Caco-2 colorectal cells with wild-type Ras. The conditions noted are these: Homo sapiens, Caco-2; growth inhibition, 384-well plates, Table 3; read-out: Caco-2 (WT Ras) IC50.
In the next data set the test system is SW-480 cells. In words: Cell growth inhibition (CellTiter-Glo), SW-480 colorectal cells with activated Ras. The conditions noted are these: for IC50: Homo sapiens, SW480, growth inhibition, 384-well plates, Table 3, read-out: SW-480 (Ras Activated IC50); for Selectivity Caco-2/SW-480: ratio IC50 Caco-2 (WT Ras) / IC50 SW-480 (Ras activated). As to the method: as §1, §2
The growth inhibitory activity of the compounds was tested using the CellTiter-Glo assay. Cells were seeded in 384-well plates and allowed to attach, then ten-fold serial dilutions of compounds were tested. Each concentration was tested in at least 3 separate samples per cell line.
as §4

For another data set, the system named is A549 lung cancer cells. In words: Cell growth inhibition (CellTiter-Glo ATP assay), A549 cells with mutant K-Ras. Particulars: for IC50: Homo sapiens, A549, 72 h, growth inhibition, three days treatment, K-Ras mutant lung cancer cells, read-out: A549 (Ras-activated) IC50; for Selectivity HT-29/A549: ratio IC50 HT-29 (WT Ras) / IC50 A549 (Ras-activated). As to the method: This example illustrates cell growth assays employed in the present invention. Cells used in such assays included A-549, HT-29, MDA-MB-231, Colo-205, Caco2, HCT-116, SW-480, and DLD-1 human cancer cells obtained from the American Type Culture Collection (ATCC).
as §2, with “Human tumor cells were cultured using standard methods in RPMI-1640 growth medium supplemented with 5% fetal bovine serum (FBS). Normal” for “Normal”
as §3

Data set [1] concerns HCT-116 colon tumor cells. In words: Cell growth inhibition (CellTiter-Glo), HCT-116 colon tumor cells expressing mutant Ras. The conditions noted are these: ratio IC50 HT-29 (WT Ras) / IC50 HCT-116 (mutant Ras), 5000 cells/well, 96-well plates. As for the experimental part: This example illustrates cell growth assays employed in the present invention. […] Normal rat kidney (NRK) and Ki-Ras transformed NRK cells (K-NRK) were obtained from ATCC, and were cultured according to supplier recommendations. CellTiter-Glo ATP cell growth assay reagents were obtained from Promega and used according to the manufacturer's protocol. Inhibitors of EGFR, Raf, and MEK were obtained from Selleck Chemicals. Cells were plated at a density of 5,000 cells per well in 96-well microplates or 1,250 cells per well in 384-well plates, and allowed to attach for at least 4 h. Test compounds were dissolved in dimethyl sulfoxide (DMSO), and this working stock was further diluted in growth medium for addition to cell cultures. Serial dilutions of the test compound were prepared in growth medium containing an equal amount of DMSO not exceeding 0.2% final concentration. Each compound concentration was tested in at least 3 separate samples per cell line. At the end of a 3-day treatment period, growth inhibition was analyzed using a bioluminescent assay of ATP concentration (Promega CellTiter-Glo) according to the manufacturer's protocol. Resulting luminescence was measured using the luminescence cartridge of the Molecular Devices Spectramax Paradigm microplate reader. Relative growth inhibition for each sample was determined by comparison with the values obtained for vehicle treated control samples. […] This example illustrates use of well-established human colon tumor cell lines with widely divergent Ras activation status to determine selectivity values for exemplary compounds of the present invention. […] Cells were plated at 5000 cells/well in 96-well plates, and viable cell numbers were measured using the Cell Titer Glo ATP luminescence assay (Promega). […] Cells were seeded in 384-well plates and allowed to attach. Ten-fold serial dilutions of compounds were tested. Each compound concentration was tested in at least 3 separate samples per cell line.

Where [2] appears, read: growth inhibition, colon cancer cells with wild-type Ras, Table 2, read-out: HT-29 (WT Ras) IC50.

In general, IC50 refers to the concentration that gives 50% inhibition. Take `COc1ccc2c(c1)C(CC(=O)NCc1ccco1)=C(C)/C2=C/c1cc(C)c(O)c(C)c1` [Compound 001, (Z)—N-(furan-2-ylmethyl)-2-(1-(4-hydroxy-3,5-dimethylbenzylidene)-5-methoxy-2-methyl-1H-inden-3-yl)acetamide]: the IC50 in the data set on HT-29 colon cancer cells (setting [2]) turned out to be 6280 nM; in the data set on Caco-2 cells, 1100 nM; in the data set with SW-480 cells it was 435 nM; in the data set with A549 lung cancer cells it was 716 nM. Also, in the data set on SW-480 cells, the “Selectivity Caco-2/SW-480” value was found to be 3. In addition, in the data set on A549 lung cancer cells, the “Selectivity HT-29/A549” value is 9.

As to `COc1cc(/C=C2/C(C)=C(CC(=O)NCc3ccco3)c3cc(F)ccc32)cc(OC)c1OC=O` [Compound 002, (Z)-2-(5-fluoro-1-(4-formoxy-3,5-dimethoxybenzylidene)-2-methyl-1H-inden-3-yl)-N-(furan-2-ylmethyl)acetamide], the HT-29/HCT-116 selectivity values in data set [1] amounted to 112.

For the compound `COc1ccc2c(c1)C(CC(=O)NCCN(C)C)=C(C)/C2=C/c1cc(OC)c(O)c(OC)c1` [Compound 003, (Z)—N-(2-(dimethylamino)ethyl)-2-(1-(4-hydroxy-3,5-dimethoxybenzylidene)-5-methoxy-2-methyl-1H-inden-3-yl)acetamide], the IC50 in the data set on HT-29 colon cancer cells (setting [2]) was found to be 4120 nM. Further, in the data set on A549 lung cancer cells, the IC50 was 3650 nM and the “Selectivity HT-29/A549” value is on record as 1.

Consider `COc1ccc2c(c1)C(CC(=O)Nc1cccnc1)=C(C)/C2=C/c1cc(OC)c(O)c(OC)c1` [Compound 004, (Z)-2-(1-(4-hydroxy-3,5-dimethoxybenzylidene)-5-methoxy-2-methyl-1H-inden-3-yl)-N-(pyridin-3-yl)acetamide], for which the IC50 with HT-29 colon cancer cells (setting [2]) was 916 nM; with Caco-2 cells, 1600 nM; in the data set with SW-480 cells, 877 nM; with A549 lung cancer cells it was 79 nM. Moreover, in the data set on SW-480 cells, the “Selectivity Caco-2/SW-480” value was 2. In addition, in the data set on A549 lung cancer cells, the “Selectivity HT-29/A549” value amounted to 12.

In the case of `COc1ccc2c(c1)C(CC(=O)NC1CCN(C)C1)=C(C)/C2=C/c1cc(OC)c(O)c(OC)c1` (stereo not shown) [Compound 005, (Z)-2-(1-(4-hydroxy-3,5-dimethoxybenzylidene)-5-methoxy-2-methyl-1H-inden-3-yl)-N-(1-methylpyrrolidin-3-yl)acetamide], the IC50 in the data set with HT-29 colon cancer cells (setting [2]) amounted to 7190 nM. In addition, in the data set on A549 lung cancer cells, the IC50 is 5940 nM and the “Selectivity HT-29/A549” value is listed as 1.

In the case of `COc1cc2c(cc1OC)/C(=C\c1cc(OC)c(O)c(OC)c1)C(C)=C2CC(=O)NCc1ccco1` [Compound 008, (Z)—N-(furan-2-ylmethyl)-2-(1-(4-hydroxy-3,5-dimethoxybenzylidene)-5,6-dimethoxy-2-methyl-1H-inden-3-yl)acetamide], the IC50 with HT-29 colon cancer cells (setting [2]) stood at 1540 nM; in the data set with Caco-2 cells, 1330 nM; in the data set with SW-480 cells, 139 nM; in the data set on A549 lung cancer cells, 167 nM. Moreover, the “Selectivity Caco-2/SW-480” value in the data set on SW-480 cells was 10. Further, the “Selectivity HT-29/A549” value in the data set with A549 lung cancer cells came to 9.

Consider `COc1ccc2c(c1)C(CC(=O)NCc1ccco1)=C(C)/C2=C/c1ccc(O)c(OC)c1` [Compound 012, (Z)—N-(furan-2-ylmethyl)-2-(1-(4-hydroxy-3-methoxybenzylidene)-5-methoxy-2-methyl-1H-inden-3-yl)acetamide], for which the IC50 in the data set with HT-29 colon cancer cells (setting [2]) came to 900 nM; with A549 lung cancer cells, 170 nM. Also, the “Selectivity HT-29/A549” value with A549 lung cancer cells worked out at 5.

For the compound `COc1ccc2c(c1)C(CC(=O)NCc1ccco1)=C(C)/C2=C/c1cc(Br)c(O)c(OC)c1` [Compound 013, (Z)-2-(1-(3-bromo-4-hydroxy-5-methoxybenzylidene)-5-methoxy-2-methyl-1H-inden-3-yl)-N-(furan-2-ylmethyl)acetamide], the IC50 in the data set with HT-29 colon cancer cells (setting [2]) is 730 nM. In the data set on A549 lung cancer cells, the IC50 came out at 300 nM and the “Selectivity HT-29/A549” value was found to be 2.

For the compound `COc1ccc2c(c1)C(CC(=O)NCc1ccco1)=C(C)/C2=C/c1cc(Cl)c(O)c(OC)c1` [Compound 014, (Z)-2-(1-(3-chloro-4-hydroxy-5-methoxybenzylidene)-5-methoxy-2-methyl-1H-inden-3-yl)-N-(furan-2-ylmethyl)acetamide], the IC50 in the data set on HT-29 colon cancer cells (setting [2]) amounted to 500 nM; with A549 lung cancer cells it was 110 nM. In the data set on A549 lung cancer cells, the “Selectivity HT-29/A549” value is listed as 5.

As for `COc1cc(/C=C2/C(C)=C(CC(=O)NCc3ccccc3)c3cc(F)ccc32)cc(OC)c1O` [Compound 015, (Z)—N-benzyl-2-(5-fluoro-1-(4-hydroxy-3,5-dimethoxybenzylidene)-2-methyl-1H-inden-3-yl)acetamide], in data set [1], the HT-29/HCT-116 selectivity values is reported as 80.

For `COc1cc(/C=C2/C(C)=C(CC(=O)NCc3cccn3C)c3cc(F)ccc32)cc(OC)c1O` [Compound 019, (Z)-2-(5-fluoro-1-(4-hydroxy-3,5-dimethoxybenzylidene)-2-methyl-1H-inden-3-yl)-N-((1-methyl-1H-pyrrol-2-yl)methyl)acetamide], the HT-29/HCT-116 selectivity values in data set [1] was determined as 188.

Turning to `COc1ccc2c(c1)C(CC(=O)NCc1ccc[nH]1)=C(C)/C2=C/c1cc(OC)c(O)c(OC)c1` [Compound 022, (Z)—N-((1H-pyrrol-2-yl)methyl)-2-(1-(4-hydroxy-3,5-dimethoxybenzylidene)-5-methoxy-2-methyl-1H-inden-3-yl)acetamide], in data set [1], the HT-29/HCT-116 selectivity values is 117.

In the case of `COc1cc(/C=C2/C(C)=C(CC(=O)NCc3ccco3)c3cc(F)ccc32)cc(OC)c1OS(C)(=O)=O` [Compound 029, (Z)-2-(5-fluoro-1-(4-mesyloxy-3,5-dimethoxybenzylidene)-2-methyl-1H-inden-3-yl)-N-(furan-2-ylmethyl)acetamide], in data set [1], the HT-29/HCT-116 selectivity values turned out to be 35.

Take `COc1cc(/C=C2/C(C)=C(CC(=O)Nc3ccccc3)c3cc(F)ccc32)cc(OC)c1O` [Compound 035, (Z)-2-(5-fluoro-1-(4-hydroxy-3,5-dimethoxybenzylidene)-2-methyl-1H-inden-3-yl)-N-phenylacetamide]: the HT-29/HCT-116 selectivity values in data set [1] is recorded as 31.

As to `OCCn1cc(-c2ccc3c(c2)CC/C3=N\O)c(-c2ccncc2)n1` [GDC0879, reference compound], the IC50 with HT-29 colon cancer cells (known Ras pathway inhibitors, 384-well plates, Table 4, read-out: HT-29 IC50) came to 23600 nM.
